Here are results for 37 compounds from patent US8993585B2, “Cyclic amine substituted pyrimidinediamines as PKC inhibitors” (Rigel Pharmaceuticals, Inc., priority 2007, dated 2015).

Molecules are shown by their SMILES. pIC50: −log10 of the molar value.

The target of one test is T1, PKC theta (Homo sapiens, UniProt Q04759).
T1 construct: purchased Upstate Biotechnologies, Temecula, CA 14-444
Description: PKC assay, fluorescence polarization (Example 2), PKC theta. It is filed as biochemical. Conditions: 5 μM ATP. The procedure: The inhibition of PKC activity was measured by monitoring the production of phosphorylated peptide by fluorescence polarization at different concentrations of the inhibitor. Reactions were carried out in 96-well plate format with a total volume of 20 μL containing 20 mM HEPES, pH 7.4, 5 mM MgCl2, 0.2 mM CaCl2, 1 mM DTT, 0.02% Brij-35, 0.1 mg/mL phosphatidylserine, 0.02 mg/mL dioleoyl-sn-glycerol and 5 μM each of ATP and the peptide substrate. Compounds were first diluted serially in DMSO and then transferred to a solution containing the above concentrations of HEPES, MgCl2, CaCl2, DTT, and Brij-35 to yield 5× compound solutions in 2% DMSO, which was then added to the reaction solution. Reactions were initiated by the addition of PKC at a typical concentration as described in Table VI, and then allowed to incubate at room temperature for 20 min. At the end of this time, a combination of quench (EDTA) and detection (peptide tracer and antibody) reagents was added using the protocol of Invitrogen P2748.
(In general: Fluorescence polarisation rises when a labelled molecule tumbles more slowly, as on binding a larger partner.)

For the next test, the system named is Human primary T cells. Kind of test: IL-2 ELISA, Human Primary T Cell, Anti-CD3+CD28+ (Example 3). It is filed as cell-based. Conditions: Homo sapiens, T-cell, 24 h, anti-CD3+CD28 stimulation. The procedure, abridged: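 Human primary T cells, 100,000 per well, were pre-incubated with compound in Yssel's medium for 1 h at 37 °C. The counter-assay used 0.5 ng/ml PMA with 0.1 uM ionomycin final.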

T1 sequence (Q04759 whole entry): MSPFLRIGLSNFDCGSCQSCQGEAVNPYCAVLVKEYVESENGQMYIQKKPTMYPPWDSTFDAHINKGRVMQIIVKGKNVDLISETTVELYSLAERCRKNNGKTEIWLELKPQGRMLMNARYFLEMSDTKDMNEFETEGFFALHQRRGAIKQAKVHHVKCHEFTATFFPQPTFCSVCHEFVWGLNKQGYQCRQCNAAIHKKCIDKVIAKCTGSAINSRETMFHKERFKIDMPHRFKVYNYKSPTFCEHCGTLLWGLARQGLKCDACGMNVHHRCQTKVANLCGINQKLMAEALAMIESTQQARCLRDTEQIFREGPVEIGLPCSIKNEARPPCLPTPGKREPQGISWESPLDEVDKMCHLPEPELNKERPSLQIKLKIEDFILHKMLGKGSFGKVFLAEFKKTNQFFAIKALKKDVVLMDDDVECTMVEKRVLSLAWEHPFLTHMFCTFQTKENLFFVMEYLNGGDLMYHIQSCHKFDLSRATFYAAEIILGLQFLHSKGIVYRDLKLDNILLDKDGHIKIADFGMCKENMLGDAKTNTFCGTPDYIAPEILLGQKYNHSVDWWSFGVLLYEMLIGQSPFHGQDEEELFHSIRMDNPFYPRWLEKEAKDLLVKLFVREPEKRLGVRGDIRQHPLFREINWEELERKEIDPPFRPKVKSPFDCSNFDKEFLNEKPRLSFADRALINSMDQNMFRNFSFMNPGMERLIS

As for `Cc1ccc(Nc2ncc(F)c(NC3CC(C)(C)N(C)C(C)(C)C3)n2)cc1-c1cnn(C)c1` [Compound I-190], the figures for the pIC50 at PKC theta and in the test on Human primary T cells were 7.84 and 6.29, respectively.
For the compound `Cc1ccc(Nc2ncc(F)c(NC3CC(C)(C)N(C)C(C)(C)C3)n2)cc1Br` [Compound I-160], the values for the negative logarithm of the IC50 (pIC50) on PKC theta and in the test with Human primary T cells were 7.49 and 6.69, respectively.
Consider `CN1C(C)(C)CC(Nc2nc(Nc3cc(-c4ccoc4)cc(C(F)(F)F)c3)ncc2F)CC1(C)C` [Compound I-203], for which the values for the pIC50 on PKC theta and with Human primary T cells were 7.04 and 6.37, respectively.
Consider `CN1CCN(c2ccc(Nc3ncc(F)c(NC4CC(C)(C)N(C)C(C)(C)C4)n3)cc2C(F)(F)F)CC1` [Compound I-5], for which the pIC50 (as a rule, the negative decadic logarithm of the IC50, by convention in mol/L) was 8.30 on PKC theta and 7.07 with Human primary T cells.
Take `CN1C(C)(C)CC(Nc2nc(Nc3ccc(-c4cccnc4)c(Cl)c3)ncc2F)CC1(C)C` [Compound I-154]: the figures for the pIC50 at PKC theta and with Human primary T cells were 8.42 and 6.58, respectively.
As to `CN1CCC(Nc2nc(Nc3ccc(N4CCN(C)CC4)c(C(F)(F)F)c3)ncc2F)CC1` [III-3, 5-Fluoro-N2-[4-(4-methylpiperazino)-3-trifluoromethyl]phenyl-N4-(1-methylpiperidin-4-yl)-2,4-pyrimidinediamine], the pIC50 is 7.74 on PKC theta and 6.21 in the test on Human primary T cells.
For `CN1C(C)(C)CC(Nc2nc(Nc3cccc(OC(F)F)c3)ncc2F)CC1(C)C` [Compound I-234], the pIC50 at PKC theta is 7.87; with Human primary T cells, 6.65.
With `CN1C(C)(C)CC(Nc2nc(Nc3ccc(-c4cccnc4)c(C#N)c3)ncc2F)CC1(C)C` [Compound I-186], the pIC50 at PKC theta is 8.85; in the test with Human primary T cells it was 7.03.
`CN1C(C)(C)CC(Nc2nc(Nc3cc(-c4cnn(C)c4)cc(C(F)(F)F)c3)ncc2F)CC1(C)C` [Compound I-204]: the pIC50 at PKC theta was 7.08; in the test on Human primary T cells it was 6.36.
As for `Cc1cc(Nc2ncc(F)c(NC3CC(C)(C)N(C)C(C)(C)C3)n2)ccc1-c1ccncc1` [Compound I-120], the values for the pIC50 on PKC theta and in the test with Human primary T cells were 7.53 and 6.44, respectively.
Take `CCN1C(=O)C(C)(C)Oc2cc(Nc3ncc(OC)c(NC4CC(C)(C)N(C)C(C)(C)C4)n3)ccc21` [II-130]: the pIC50 at PKC theta is 8.00; in the test on Human primary T cells, 6.14.
Turning to `CN1C(C)(C)CC(Nc2nc(Nc3ccc(OC(F)(F)F)c(-c4cccnc4)c3)ncc2F)CC1(C)C` [Compound I-208], the figures for the pIC50 at PKC theta and in the test with Human primary T cells were 7.28 and 6.33, respectively.
On to `CN1C(C)(C)CC(Nc2nc(Nc3ccc(N4CCOCC4)c(C#N)c3)ncc2F)CC1(C)C` [Compound I-198], for which the results for the pIC50 on PKC theta and with Human primary T cells were 8.71 and 6.76, respectively.
On to `CC1(C)CC(Nc2nc(Nc3cccc(C#N)c3)ncc2F)CC(C)(C)N1` [Compound I-70], for which the pIC50 at PKC theta was 7.41; in the test with Human primary T cells it was 6.29.
With `CN1C(C)(C)CC(Nc2nc(Nc3ccc(-c4cnn(C)c4)c(C(F)(F)F)c3)ncc2F)CC1(C)C` [Compound I-126], the pIC50 on PKC theta was 7.92; in the test on Human primary T cells, 6.61.
Turning to `CN1CCN(c2ccc(Nc3ncc(F)c(NC4CC(C)(C)N(C)C(C)(C)C4)n3)cc2Cl)CC1` [Compound I-3], the figures for the pIC50 at PKC theta and with Human primary T cells were 8.30 and 6.97, respectively.
Regarding `Cc1cc(Nc2ncc(F)c(NC3CC(C)(C)N(C)C(C)(C)C3)n2)ccc1N1CCN(C)CC1` [Compound I-4], the pIC50 is 7.52 at PKC theta and 6.60 with Human primary T cells.
Turning to `CN1C(C)(C)CC(Nc2nc(Nc3ccc(-c4ccncc4)c(C#N)c3)ncc2F)CC1(C)C` [Compound I-185], the pIC50 at PKC theta is 8.12; in the test on Human primary T cells it was 6.52.
Take `COc1ccc(Nc2ncc(F)c(NC3CC(C)(C)NC(C)(C)C3)n2)cc1Cl` [Compound I-254]: the pIC50 on PKC theta is 7.27; with Human primary T cells, 6.31.
With `Cc1ccc2cc(Nc3ncc(F)c(NC4CC(C)(C)N(C)C(C)(C)C4)n3)ccc2n1` [II-7], the values for the pIC50 on PKC theta and with Human primary T cells were 7.27 and 6.32, respectively.
In the case of `CN1CCN(c2ccc(Nc3ncc(Cl)c(NC4CC(C)(C)N(C)C(C)(C)C4)n3)cc2C#N)CC1` [Compound I-179], the pIC50 at PKC theta was 8.83; in the test with Human primary T cells, 7.04.
For the compound `Cc1ccc(Nc2ncc(F)c(NC3CC(C)(C)N(C)C(C)(C)C3)n2)cc1Cl` [Compound I-332], the values for the negative logarithm of the IC50 (pIC50) on PKC theta and with Human primary T cells were 7.44 and 6.52, respectively.
Take `CC1(C)CC(Nc2nc(Nc3ccc4c(c3)oc(=O)n4CC3CC3)ncc2C#N)CC(C)(C)N1` [II-97]: the pIC50 is 8.60 on PKC theta and 6.30 in the test with Human primary T cells.
With `CN1CCN(c2ccc(Nc3ncc(F)c(NC4CCN(CCO)CC4)n3)cc2C(F)(F)F)CC1` [III-7, 5-Fluoro-N4-[1-(2-hydroxyethyl)piperidin-4-yl]-N2-[4-(4-methylpiperazino)-3-trifluoromethyl]phenyl-2,4-pyrimidinediamine], the pIC50 was 6.60 at PKC theta and 5.94 in the test with Human primary T cells.
Turning to `CN1C(C)(C)CC(Nc2nc(Nc3ccc(S(N)(=O)=O)cc3)ncc2F)CC1(C)C` [Compound I-9], the pIC50 at PKC theta is 7.07; in the test with Human primary T cells it was 5.46.
`CN1C(C)(C)CC(Nc2nc(Nc3ccc(-c4ccoc4)cc3)ncc2F)CC1(C)C` [Compound I-125]: the pIC50 at PKC theta was 6.96; with Human primary T cells it was 6.05.
Regarding `CCN1CCN(c2ccc(Nc3ncc(F)c(NC4CC(C)(C)N(C)C(C)(C)C4)n3)cn2)CC1` [Compound I-6], the values for the pIC50 on PKC theta and in the test on Human primary T cells were 6.74 and 5.77, respectively.
As to `CN1C(C)(C)CC(Nc2nc(Nc3ccc(N4CCN(S(=O)(=O)C5CC5)CC4)c(C(F)(F)F)c3)ncc2F)CC1(C)C` [Compound I-173], the pIC50 at PKC theta is 7.58; in the test on Human primary T cells, 6.42.
As for `CN1CCN(c2ccc(Nc3ncc(C#N)c(NC4CC(C)(C)N(C)C(C)(C)C4)n3)cc2C(F)(F)F)CC1` [Compound I-94], the pIC50 on PKC theta was 7.93; in the test on Human primary T cells, 6.35.
Turning to `COc1ccc(Nc2ncc(Cl)c(NC3CC(C)(C)N(C)C(C)(C)C3)n2)cc1Cl` [Compound I-31], the pIC50 on PKC theta is 8.30; in the test with Human primary T cells, 7.04.
In the case of `N#Cc1cccc(Nc2ncc(F)c(NC3CCN(CCO)CC3)n2)c1` [III-6, N2-(3-Cyano)phenyl-5-fluoro-N4-[1-(2-hydroxyethyl)piperidin-4-yl]-2,4-pyrimidinediamine], the pIC50 is 6.59 at PKC theta and 5.81 with Human primary T cells.
For the compound `CN1CCN(c2ccc(Nc3ncc(F)c(NC4CC(C)(C)N(C)C(C)(C)C4)n3)cc2)CC1` [Compound I-1], the pIC50 at PKC theta was 6.65; in the test with Human primary T cells it was 5.52.
`CN1C(C)(C)CC(Nc2nc(Nc3ccc(-c4ccncc4)cc3)ncc2F)CC1(C)C` [Compound I-123]: the negative-log IC50 (pIC50) is 7.09 at PKC theta and 6.06 with Human primary T cells.
On to `CCCN1CCN(c2ccc(Nc3ncc(F)c(NC4CC(C)(C)N(C)C(C)(C)C4)n3)cc2Cl)CC1` [Compound I-249], for which the pIC50 on PKC theta was 7.86; with Human primary T cells, 6.87.
In the same order, the values of `CN1C(C)(C)CC(Nc2nc(Nc3cc(Br)cc(C(F)(F)F)c3)ncc2F)CC1(C)C` [Compound I-162] are 7.16 and 6.26.
As to `CN1C(C)(C)CC(Nc2nc(Nc3ccc(C(F)(F)F)c(Cl)c3)ncc2F)CC1(C)C` [Compound I-337], the pIC50 at PKC theta was 6.60; in the test on Human primary T cells, 6.51.
With `CN1C(C)(C)CC(Nc2nc(Nc3ccc(N4CCN(S(=O)(=O)C5CC5)CC4)c(Cl)c3)ncc2F)CC1(C)C` [Compound I-174], the pIC50 on PKC theta was 7.97; in the test on Human primary T cells it was 6.57.
